Reference: ChEMBL document CHEMBL4000193, “Discovery of a Chemical Probe Bisamide (CCT251236): An Orally Bioavailable Efficacious Pirin Ligand from a Heat Shock Transcription Factor 1 (HSF1) Phenotypic Screen” (J Med Chem, 2017)
Each block holds one compound with its values, some of them ahead of it. Active and inactive are the calls of the source. No cut-off for these calls is given here.

Experiments:
SK-OV-3 = test: cells; conditions: Homo sapiens, SK-OV-3, 96 h, read-out: pGI50 (converted)
Description: Antiproliferative activity against human SKOV3 cells after 96 hrs by CellTiter Blue assay

WM 266-4 = test: Anti-migratory activity against human WM266.4 cells at 1 to 1000 nM after 30 hrs by scratch-wound assay; format: functional, cell-based
[1] = Drug uptake in NCr nude mouse tumor xenografted with human SKOV3 cells at 20 mg/kg, po qd measured after 33 days; format: ADME, organism-based, Neoplasm; conditions: read-out: Drug uptake

SMILES: Cc1ccc(NC(=O)c2ccc3c(c2)OCCO3)cc1NC(=O)c1ccc2nc(OCCN3CCCCC3)ccc2c1
GI50 (SK-OV-3): 1.07 nM

SMILES: Cc1ccc(NC(=O)c2cccc3c2OCCO3)cc1NC(=O)c1ccc2nc(OCCN3CCCC3)ccc2c1
Activity (WM 266-4): inactive

concentration at […] [1]: 940 nM
SMILES: Cc1ccc(NC(=O)c2ccc3c(c2)OCCO3)cc1NC(=O)c1ccc2nc(OCCN3CCCC3)ccc2c1
